Data reported in PubChem BioAssay AID2060488 (Molecular Pharmacology Branch, DTP, NCI, 2025).

Test system: 966289-007-R4-J1-PDC complex spheroid viability
Assay: Anticancer human tumor 966289-007-R4-J1-PDC patient-derived pancreatic adenocarcinoma cell line growth inhibition [GQUAD]
Settings: for IC50: curve of first compound; for viability, T/C: stronger effect = lower value
Method in brief: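 Viability of tumor cells grown as complex spheroids with endothelial and stromal cells, exposed to drug combinations. Top concentration at or near clinical Cmax (else 10 microM), diluted in half-log increments.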

[1] = second compound 0.0316 µM, first compound 0.0316 µM
[2] = second compound 0.0316 µM, first compound 0.1 µM
[3] = second compound 0.0316 µM, first compound 0.316 µM
[4] = second compound 0.0316 µM, first compound 1 µM
[5] = second compound 0.0316 µM, first compound 3.16 µM
[6] = second compound 0.0316 µM, first compound 10 µM
[7] = second compound 0.1 µM, first compound 0.0316 µM
[8] = second compound 0.1 µM, first compound 0.1 µM
[9] = second compound 0.1 µM, first compound 0.316 µM
[10] = second compound 0.1 µM, first compound 1 µM
[11] = second compound 0.1 µM, first compound 3.16 µM
[12] = second compound 0.1 µM, first compound 10 µM
[13] = second compound 0.316 µM, first compound 0.0316 µM
[14] = second compound 0.316 µM, first compound 0.1 µM
[15] = second compound 0.316 µM, first compound 0.316 µM
[16] = second compound 0.316 µM, first compound 1 µM
[17] = second compound 0.316 µM, first compound 3.16 µM
[18] = second compound 0.316 µM, first compound 10 µM
[19] = second compound 1 µM, first compound 0.0316 µM
[20] = second compound 1 µM, first compound 0.1 µM
[21] = second compound 1 µM, first compound 0.316 µM
[22] = second compound 1 µM, first compound 1 µM
[23] = second compound 1 µM, first compound 3.16 µM
[24] = second compound 1 µM, first compound 10 µM
[25] = second compound 3.16 µM, first compound 0.0316 µM
[26] = second compound 3.16 µM, first compound 0.1 µM
[27] = second compound 3.16 µM, first compound 0.316 µM
[28] = second compound 3.16 µM, first compound 1 µM
[29] = second compound 3.16 µM, first compound 3.16 µM
[30] = second compound 3.16 µM, first compound 10 µM
[31] = second compound 10 µM, first compound 0.0316 µM
[32] = second compound 10 µM, first compound 0.1 µM
[33] = second compound 10 µM, first compound 0.316 µM
[34] = second compound 10 µM, first compound 1 µM
[35] = second compound 10 µM, first compound 3.16 µM
[36] = second compound 10 µM, first compound 10 µM
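Also: spheroids exposed to the agents for seven days before readout.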
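For viability, T/C in this document: percent viability relative to DMSO vehicle control wells taken as 100%.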

In the case of `COc1cccc2c1C(=O)c1c(O)c3c(c(O)c1C2=O)CC(O)(C(=O)CO)CC3OC1CC(N)C(O)C(C)O1` (stereo unspecified) + CN(C)c1ccc(Nc2c3ccc(NC(=O)CCN4CCCC4)cc3nc3cc(NC(=O)CCN4CCCC4)ccc23)cc1, the IC50 (second compound 0.0316 µM) is reported as 69.2 nM, the IC50 (second compound 0.1 µM) is reported as 67.1 nM and the IC50 (second compound 0.316 µM) is reported as 65.1 nM. For the same compound, the IC50 (second compound 1 µM) was 66.2 nM, the IC50 (second compound 3.16 µM) was 65.7 nM and the IC50 (second compound 10 µM) was 59.6 nM. For the same compound, the viability, T/C [1] was 112%, the viability, T/C [2] was 20.7% and the viability, T/C [3] was 3.69%. It also gave a viability, T/C [4] of 0.82%, a viability, T/C [5] of 0.35% and a viability, T/C [6] of 0.92%. The viability, T/C [7] was 108%, the viability, T/C [8] was 19.4% and the viability, T/C [9] was 3.8%. For the same compound, the viability, T/C [10] was 0.83%, the viability, T/C [11] was 0.26% and the viability, T/C [12] was 0.53%. The viability, T/C [13] was 105%, the viability, T/C [14] was 17.7% and the viability, T/C [15] was 3.65%. For the same compound, the viability, T/C [16] was 0.88%, the viability, T/C [17] was 0.29% and the viability, T/C [18] was 0.67%. It also gave a viability, T/C [19] of 101%, a viability, T/C [20] of 21.3% and a viability, T/C [21] of 3.85%. For the same compound, the viability, T/C [22] was 0.93%, the viability, T/C [23] was 0.27% and the viability, T/C [24] was 0.34%. The viability, T/C [25] was 106%, the viability, T/C [26] was 18.1% and the viability, T/C [27] was 3.67%. It also gave a viability, T/C [28] of 0.97%, a viability, T/C [29] of 0.25% and a viability, T/C [30] of 0.67%. The viability, T/C [31] was 97.9%, the viability, T/C [32] was 11% and the viability, T/C [33] was 1.38%. It also gave a viability, T/C [34] of 0.42%, a viability, T/C [35] of 0.24% and a viability, T/C [36] of 0.29%.
In the case of `Cn1ncnc1[C@H]1c2n[nH]c(=O)c3cc(F)cc(c23)N[C@@H]1c1ccc(F)cc1` + Cc1[nH]c2ccc(F)cc2c1-c1nc2c3cccnc3c3ncccc3c2[nH]1, the IC50 (second compound 0.0316 µM) is reported as 101 nM, the IC50 (second compound 0.1 µM) is reported as 89.8 nM and the IC50 (second compound 0.316 µM) is reported as 105 nM. For the same compound, the IC50 (second compound 1 µM) was 127 nM, the IC50 (second compound 3.16 µM) was 76.3 nM and the IC50 (second compound 10 µM) was 63.6 nM. The viability, T/C (second compound 0.0316 µM, first compound 0.000999 µM) was 108%, the viability, T/C (second compound 0.0316 µM, first compound 0.00316 µM) was 95.8% and the viability, T/C (second compound 0.0316 µM, first compound 0.00999 µM) was 105%. For the same compound, the viability, T/C [1] was 96.8%, the viability, T/C (second compound 0.0316 µM, first compound 0.0999 µM) was 50.3% and the viability, T/C [3] was 21%. The viability, T/C (second compound 0.1 µM, first compound 0.000999 µM) was 101%, the viability, T/C (second compound 0.1 µM, first compound 0.00316 µM) was 99.4% and the viability, T/C (second compound 0.1 µM, first compound 0.00999 µM) was 106%. It also gave a viability, T/C [7] of 99.3%, a viability, T/C (second compound 0.1 µM, first compound 0.0999 µM) of 44.9% and a viability, T/C [9] of 20%. The viability, T/C (second compound 0.316 µM, first compound 0.000999 µM) was 101%, the viability, T/C (second compound 0.316 µM, first compound 0.00316 µM) was 107% and the viability, T/C (second compound 0.316 µM, first compound 0.00999 µM) was 108%. The viability, T/C [13] was 105%, the viability, T/C (second compound 0.316 µM, first compound 0.0999 µM) was 51.5% and the viability, T/C [15] was 18.6%. The viability, T/C (second compound 1 µM, first compound 0.000999 µM) was 101%, the viability, T/C (second compound 1 µM, first compound 0.00316 µM) was 103% and the viability, T/C (second compound 1 µM, first compound 0.00999 µM) was 112%. The viability, T/C [19] was 102%, the viability, T/C (second compound 1 µM, first compound 0.0999 µM) was 58.4% and the viability, T/C [21] was 18.6%. It also gave a viability, T/C (second compound 3.16 µM, first compound 0.000999 µM) of 105%, a viability, T/C (second compound 3.16 µM, first compound 0.00316 µM) of 105% and a viability, T/C (second compound 3.16 µM, first compound 0.00999 µM) of 110%. For the same compound, the viability, T/C [25] was 92.8%, the viability, T/C (second compound 3.16 µM, first compound 0.0999 µM) was 36.9% and the viability, T/C [27] was 12.1%. The viability, T/C (second compound 10 µM, first compound 0.000999 µM) was 106%, the viability, T/C (second compound 10 µM, first compound 0.00316 µM) was 105% and the viability, T/C (second compound 10 µM, first compound 0.00999 µM) was 109%. The viability, T/C [31] was 88.3%, the viability, T/C (second compound 10 µM, first compound 0.0999 µM) was 25.3% and the viability, T/C [33] was 11.6%.
`CC1COCCN1c1cc(C2(O)CC3CCC(C2)O3)c2cnn(-c3ccn[nH]3)c2n1` (stereo unspecified) + CN(C)c1ccc(Nc2c3ccc(NC(=O)CCN4CCCC4)cc3nc3cc(NC(=O)CCN4CCCC4)ccc23)cc1 gave an IC50 (second compound 0.0316 µM) of 176 nM, an IC50 (second compound 0.1 µM) of 177 nM and an IC50 (second compound 0.316 µM) of 176 nM. For the same compound, the IC50 (second compound 1 µM) was 167 nM, the IC50 (second compound 3.16 µM) was 147 nM and the IC50 (second compound 10 µM) was 74.1 nM. The viability, T/C [1] was 116%, the viability, T/C [2] was 75.1% and the viability, T/C [3] was 24.1%. The viability, T/C [4] was 8.6%, the viability, T/C [5] was 5.79% and the viability, T/C [6] was 5.95%. For the same compound, the viability, T/C [7] was 112%, the viability, T/C [8] was 81.4% and the viability, T/C [9] was 18.1%. For the same compound, the viability, T/C [10] was 8.59%, the viability, T/C [11] was 5.93% and the viability, T/C [12] was 5.58%. The viability, T/C [13] was 109%, the viability, T/C [14] was 75.8% and the viability, T/C [15] was 23.1%. The viability, T/C [16] was 9%, the viability, T/C [17] was 5.73% and the viability, T/C [18] was 5.87%. The viability, T/C [19] was 103%, the viability, T/C [20] was 74.3% and the viability, T/C [21] was 19.6%. It also gave a viability, T/C [22] of 8.84%, a viability, T/C [23] of 6.93% and a viability, T/C [24] of 4.89%. The viability, T/C [25] was 104%, the viability, T/C [26] was 65.6% and the viability, T/C [27] was 19.1%. For the same compound, the viability, T/C [28] was 8.61%, the viability, T/C [29] was 6.25% and the viability, T/C [30] was 4.79%. For the same compound, the viability, T/C [31] was 86.3%, the viability, T/C [32] was 37.3% and the viability, T/C [33] was 12.7%. It also gave a viability, T/C [34] of 6.7%, a viability, T/C [35] of 6.68% and a viability, T/C [36] of 3.1%.
